Assay results: ChEMBL document CHEMBL2401675, “Design, synthesis, and biological evaluation of novel dipeptide-type SARS-CoV 3CL protease inhibitors: structure-activity relationship study” (Eur J Med Chem, 2013)

What was measured:
Replicase polyprotein 1a = Replicase polyprotein 1a (Severe acute respiratory syndrome-related coronavirus, UniProt P0C6U8); test: Inhibition of SARS coronavirus Chymotrypsin-like protease using H-Thr-Ser-Ala-Val-Leu-Gln-Ser-Gly-Phe-Arg-Lys-NH2 as substrate by fluorescence assay
[1] = biological target: Replicase polyprotein 1a (Severe acute respiratory syndrome-related coronavirus) (UniProt P0C6U8); test: Ratio of Kinact to Ki for SARS coronavirus Chymotrypsin-like protease

SMILES	Ki (Replicase polyprotein 1a)	Ratio [1]
CC(C)C[C@H](NC(=O)COc1cccc(N(C)C)c1)C(=O)N[C@@H](C[C@@H]1CCNC1=O)C(=O)c1nc2ccccc2s1	840 nM	
Cc1ccc(-c2cnc(C(=O)[C@H](C[C@@H]3CCNC3=O)NC(=O)[C@H](CC(C)C)NC(=O)OCc3ccccc3)s2)cc1	37000 nM	
COc1ccc(/C=C/C(=O)N[C@@H](CC(C)C)C(=O)N[C@@H](C[C@@H]2CCNC2=O)C(=O)c2nc3ccccc3s2)cc1	700 nM	
COc1ccc(/C=C/C(=O)N[C@@H](CC(C)C)C(=O)N[C@@H](C[C@@H]2CCNC2=O)C(=O)c2nc3ccccc3s2)cc1OC	1300 nM	
CC[C@@H](C)[C@H](NC(=O)OCc1ccccc1)C(=O)N[C@@H](C[C@@H]1CCNC1=O)C(=O)c1nc2ccccc2s1	29000 nM	
COc1ccc(-c2cnc(C(=O)[C@H](C[C@@H]3CCNC3=O)NC(=O)[C@H](CC(C)C)NC(=O)OCc3ccccc3)s2)cc1	52000 nM	
CC(C)C[C@H](NC(=O)Cc1ccccc1)C(=O)N[C@@H](C[C@@H]1CCNC1=O)C(=O)c1nc2ccccc2s1	3200 nM	
CCCC[C@H](NC(=O)OCc1ccccc1)C(=O)N[C@@H](C[C@@H]1CCNC1=O)C(=O)c1nc2ccccc2s1	1600 nM	
COc1ccc(NCC(=O)N[C@@H](CC(C)C)C(=O)N[C@@H](C[C@@H]2CCNC2=O)C(=O)c2nc3ccccc3s2)cc1	3200 nM	
CC(C)C[C@H](NC(=O)CCc1cccnc1)C(=O)N[C@@H](C[C@@H]1CCNC1=O)C(=O)c1nc2ccccc2s1	7400 nM	
COc1ccc(CCC(=O)N[C@@H](CC(C)C)C(=O)N[C@@H](C[C@@H]2CCNC2=O)C(=O)c2nc3ccccc3s2)cc1	610 nM	
CCOC(=O)C1OC1C(=O)N(CCC(N)=O)NC(=O)[C@@H](CC(=O)[C@H](CC(C)C)NC(=O)OCc1ccccc1)Cc1ccccc1 (some centres not stated)		1900 M⁻¹ s⁻¹
CC(C)[C@H](NC(=O)OCc1ccccc1)C(=O)N[C@@H](C[C@@H]1CCNC1=O)C(=O)c1nc2ccccc2s1	1710 nM	
O=C(N[C@@H](Cc1ccccc1)C(=O)N[C@@H](C[C@@H]1CCNC1=O)C(=O)c1nc2ccccc2s1)OCc1ccccc1	1200 nM	
CC(C)C[C@H](NC(=O)/C=C/c1ccccc1)C(=O)N[C@@H](C[C@@H]1CCNC1=O)C(=O)c1nc2ccccc2s1	690 nM	
CC(C)C[C@H](NC(=O)OC(C)(C)C)C(=O)N[C@@H](C[C@@H]1CCNC1=O)C(=O)c1nc2ccccc2s1	23000 nM	
COc1ccc(OCC(=O)N[C@@H](CC(C)C)C(=O)N[C@@H](C[C@@H]2CCNC2=O)C(=O)c2nc3ccccc3s2)cc1	1560 nM	
COc1ccccc1-c1cnc(C(=O)[C@H](C[C@@H]2CCNC2=O)NC(=O)[C@H](CC(C)C)NC(=O)OCc2ccccc2)s1	2500 nM	
CC(C)CC(=O)N[C@@H](CC(C)C)C(=O)N[C@@H](C[C@@H]1CCNC1=O)C(=O)c1nc2ccccc2s1	5900 nM	
CC(C)C[C@H](NC(=O)COc1ccc(O)cc1)C(=O)N[C@@H](C[C@@H]1CCNC1=O)C(=O)c1nc2ccccc2s1	8400 nM	
CC(C)C[C@H](NC(=O)OCc1ccccc1)C(=O)N[C@@H](C[C@@H]1CCNC1=O)C(=O)c1ncc(-c2ccccc2)s1	660 nM	
CSCC[C@H](NC(=O)OCc1ccccc1)C(=O)N[C@@H](C[C@@H]1CCNC1=O)C(=O)c1nc2ccccc2s1	9400 nM	
